Measurements as given in patent US8889650B2, “Antimelancholic medicine prepared with jujube camp materials” (Beijing Wonner Biotech, Ltd. Co., priority 2007, dated 2014).

What was measured:
[1] = test system: ICR mice; test: Mouse tail-hanging experiment; type: in vivo
Excerpt: Experiment 1: The Influence of Embodiment 3 in the Mouse Tail-Hanging Experiment 1.1 Experimental animals: ICR mice, male, 22.0±2 g of body weight, secondary, were provided by the Experimental Animal Science Department of Capital Medical University, Beijing. 1.2 Experiment pharmaceuticals: The pharmaceutical of Embodiment 3 was provided by Beijing Wonner Biotech. Ltd. Co., and Paroxetine (Paxil) was the product of Zhong Mei Tianjin Smith Kline pharmaceuticals Co. Ltd. 1.4 Dose designs: 1. High dose of Embodiment 3 (5 mg/kg/d); 2. middle dose of Embodiment 3 (2.5 mg/kg/d); and 3. low dose of Embodiment 3 (1.25 mg/kg/d). 1.5.1 Group division and administration of drug: The mice were grouped randomly, with 10 mice per group. 1. High dose of Embodiment 3 (5 mg/kg, per oral (P.O.), administered for 7 days); 2. middle dose of Embodiment 3 (2.5 mg/kg, P.O., administered for 7 days); 3. low dose of Embodiment 3 (1.25 mg/kg, P.O., administered for 7 days); 4. Paroxetine (3 mg/kg, P.O., administered for 7 days); and 5. physiological saline (P.O.). After 1 hour of the last drug administration, the mouse tail-hanging experiment was proceeded. […] The time of non-movement of the mouse for the last 5 minutes was recorded. 1.5.3 Statistic calculation: The experimental data are represented as X±SD , and the experimental result was calculated as analysis of variance (ANOVA) by SPSS 11.5 statistic software.

[2] = test system: ICR mice; test: Mouse swimming by compulsion experiment; type: in vivo
Excerpt: Experiment 2: The Influence of Embodiment 3 in the Mouse Swimming by Compulsion Experiment 2.1 Experimental animals: ICR mice, male, 22.0±2 g body weight, secondary, were provided by the Experimental Animal Science Department of Capital Medical University, Beijing. 2.2 Experiment pharmaceuticals: The pharmaceutical of Embodiment 3 was provided by Beijing Wonner Biotech. Ltd. Co., and Paroxetine (Paxil) was the product of Zhong Mei Tianjin Smith Kline pharmaceuticals Co. Ltd. 2.4 Dose designs: 1. High dose of Embodiment 3 (5 mg/kg/d); 2. middle dose of Embodiment 3 (2.5 mg/kg/d); and 3. low dose of Embodiment 3 (1.25 mg/kg/d). 2.5.1 Group division and administration of drug: The mice were grouped randomly, with 10 mice per group. 1. High dose of Embodiment 3 (5 mg/kg, P.O., administered for 7 days); 2. middle dose of Embodiment 3 (2.5 mg/kg, P.O., administered for 7 days); 3. low dose of Embodiment 3 (1.25 mg/kg, P.O., administered for 7 days); 4. Paroxetine (3 mg/kg, P.O., administered for 7 days); and 5. physiological saline (P.O.). […] The accumulative time of non-movement of the mouse in the water for the last 5 minutes was recorded. 2.5.3 Statistic calculation: The experimental data are represented as X±SD, and the experimental result was calculated as ANOVA by SPSS 11.5 statistic software.

## Fc1ccc([C@@H]2CCNC[C@H]2COc2ccc3c(c2)OCO3)cc1 [Paroxetine]
[1]; Paroxetine 3 mg/kg P.O. for 7 days, tail hung 6 min, last 5 min recorded, 1 hour after last administration, X±SD
  Time of non-movement: 67.59 ± 39.09 s
[1]; high and middle doses of Embodiment 3, Paroxetine, significant in comparison with the physiological saline control
  Effect on time of non-movement after the mouse's tail was hung (conclusion): decreased the time of non-movement
[2]; high dose of Embodiment 3, Paroxetine
  Effect on time of non-movement in the mouse swimming by compulsion test (conclusion): decreased the time of non-movement
[2]; table title: time of non-movement in swimming by compulsion, Paroxetine 3 mg/kg P.O. for 7 days, 25° C. water, last 5 minutes, X±SD
  immobility time: 83.4 ± 40.7 s
